The record followed here is patent US5830994A, “Peptide derivatives of alpha-MSH and their application” (Institut Europeen De Biologie Cellulaire, priority 1993, dated 1998).

Several values for one entry are separate records, joined by “and”; a condition that tells them apart may be missing. Equal entries are not always repeated. Where two headings read alike, the source gives them in different places.

Data set [1] deals with embryonic cells (melanoblasts, neuroblasts, myoblasts, epidermal cells, fibroblasts, mesenchymatous cells). The class given is cell-based, Triton embryo and Axolotl embryo. The procedure: Qualitative and quantitative analysis of the effects of PIV on melanocyte differentiation in in vitro culture. Sample to be analyzed--compound 4=PIV Embryonic cells isolated in in vitro culture in a defined, purely saline medium (standard culture conditions: 2 ml of medium/culture). The embryonic territory is collected (from Triton embryo and from Axolotl embryo) from the first stage of melanogenesis, immediately after melanocyte induction. At this early stage of embryonic development, the neural swelling, which has just become individualized, contains all the melanoblastic precursors. The culture of the cells of the neural swelling and of the underlying mesoderm makes it possible to coculture (under completely identical conditions) the melanoblasts with various other cell precursors belonging to various categories: neuroblasts, myoblasts, epidermal cells, fibroplasts [sic], mesenchymatous cells. This allows a comparative kinetic study, on a living material, of the effects of PIV on the melanocytes and various other cell types. Duration of the culture (primary culture): 2 to 3 weeks at 20° C. The cell differentiation appears morphologically from the 3rd day and is practically complete at 8-10 days of culture. A series of PIV concentrations was analyzed: 0.01 μg/ml; 0.1 μg/ml; 1 μg/ml; and 10 μg/ml The following 2 doses were therefore selected for this work: 0.1 and 1 μg/ml. 1 single treatment during the innoculation of cultured cells. After their attachment (3 days at 20° C.), the medium is replaced with fresh medium without the Peptide PIV 1 treatment during the innoculation and a 2nd treatment during the change of medium. We developed two melanin assays: by HPLC with electrochemical detection by spectrophotometry (by adaptation of the method of TOMITA et al. 1990) at 470 nm. The development of these assays was carried out using standard solutions of melanin (Sigma, ref. M 8631) in order to define the comparative sensitivity and the minimum level of detection by either of the methods. The μg is the minimum level which can be assayed by spectrophotometry; the ng is the lower level which can be assayed by HPLC. It should however, be observed that these two techniques, especially the spectrophotometric assay, can be used since, for our cell cultures, 15 embryonic explants associated in culture are sufficient to allow quantification (by spectrophotometry).

A further data set concerns cultured embryonic cells. The data set is described as follows: Effects of Peptides PI and PIV on cultured embryonic cells in vitro (melanocytes, neurons, muscular cells, fibroblasts). In kind it is cell-based. The protocol:
Effects of Peptides PI and PIV on cultured embryonic cells in vitro . . . "Melanocytes - Neurons - Muscular Cells and Fibroblasts . . . " dose used 1 μg/ml (defined by dose/response trials)
1 single treatment during the innoculation of the cells or several successive treatments (renewal of the medium every 48 hours) duration of culture: 6 to 8 days
1) Counting of the melanocytes
2) Assay of melanin by HPLC and/or by spectrophotometry
Daily observation of the cultures
Ultrastructure by transmission electron microscopy.

The nature of data set [2]: Protection of treated animals given a lethal dose of LPS. In kind it is in vivo, mice.

Regarding “[(DL) Lip] His - D.homoPhe - Arg - Trp - NH2 [PIV]”, in data set [1], the “cell proliferation of epidermis cells, mesenchymatous cells, fibroblasts (in words)” value is recorded as “no specific cell proliferation”; the “cytotoxic effect on epidermis cells, mesenchymatous cells, fibroblasts (in words)” value is reported as “no cytotoxic effect”; the “differentiation and behaviour in vitro of epidermis cells, mesenchymatous cells, fibroblasts (in words)” value was “no retardation or accelaration”; the “number of neurons and size of the cell bodies, neuroblasts (in words)” value is “no specific stimulating effect”. Further, the “size and spreading of epidermis cells, mesenchymatous cells, fibroblasts (in words)” value in data set [1] is reported as “no stimulating effect”. The “effect on melanocyte differentiation, dose/response trial (in words)” value in data set [1] (0.01 μg/ml) is “no effect”. For the same substance, the “effect on melanocyte differentiation, dose/response trial (in words)” value in data set [1] (1 μg/ml) is “optimal effect”. Besides, the “effect on melanogenesis (in words)” value in data set [1] (0.1 and 1 μg/ml) is given as “Stimulating effect”. The “Stimulation (melanin, treated vs control cultures)” value in data set [1] (1st to 4th experiment) is 2.5 × and 2.3 × and 1.5 ×. Moreover, the “appearance of phenotypic differentiation of the melanocytes (in words)” value in data set [1] (treated cultures, from the 2nd day after innoculation, vs control cultures) is on record as “more rapidly”. For the same substance, in data set [1] (treated vs control cultures), the “number of melanocytes (in words)” value was “increase”. Moreover, in the data set on cultured embryonic cells (1 μg/ml), the “effect on precursor embryonic cells not yet determined in the melanoblastic pathway (in words)” value was “no effect”, the “effect on the melanoblasts already induced (in words)” value was “stimulating effect”, the “number of melanocytes increases by a factor” value is not below 2 and the “toxic effect on astroglial cells (in words)” value is “No toxic effect”. Moreover, the “toxic effect on fibroblasts, mesenchyme (in words)” value in the data set with cultured embryonic cells (1 μg/ml) is reported as “no toxic effect”. The “quantity of biosynthesized melanin per cell” value in the data set with cultured embryonic cells (1 μg/ml, after eight days of culture) was 1.4 ng/cell. Also, in the data set with cultured embryonic cells (1 μg/ml, even at an ultrastructural level), the “toxic effect on myoblasts (in words)” value was “no toxic effect”. For the same substance, the “effect on melanogenesis, summary (in words)” value in the data set with cultured embryonic cells (qualitative and quantitative) was “stimulate melanogenesis”. In the data set with cultured embryonic cells (summary), the “cytotoxic effect on the various cell categories (in words)” value is “no cytotoxic effect” and the “stimulating effect on the other cell types: neurons, astrocytes, muscle cells, fibroblasts (in words)” value was “without stimulating effect”. In data set [2], the “Protection of treated animals (mortality)” value is listed as “highly significant retarded mortality rate”.
